Experimental data: patent US20240084353A1, “PROCESS TO PRODUCE MONO-RHAMNOLIPIDS” (Conopco, Inc., d/b/a UNILEVER, priority 2021, published 2024)

Tested on: α-L-rhamnosidase from A. terreus
Test: Influence of rhamnose excess on rhamnosidase activity (product inhibition)
Type: biochemical, Aspergillus terreus
Settings: pNPR substrate, rhamnose solutions 0.6-3 mM added 1:1:1, pH 6.5, 40° C., 30 minutes
Description: The activity is expressed as the changes in time of the relative absorbance at 405 nm. The absorbance was measured every 30 sec. Substrate was used at 100 μM. The analysis was performed only for α-l-rhamnosidase from A. terreus. The influence of rhamnose excess on enzyme activity was investigated using the same colorimetric method as described above (See FIG. 1). The pNPR substrate was first dissolved in DMSO, with concentration adjusted to 300 μM in 100 mM sodium phosphate buffer pH 6.5. Enzymes were diluted to concentration of 30 μg/mL in 100 mM sodium phosphate buffer pH 6.5. Following sequence of rhamnose concentrations were prepared in 100 mM sodium phosphate buffer pH 6.5: 0.6 mM, 1.2 mM, 1.8 mM, 2.4 mM, 3 mM. 240 μL of the total reaction mixture was prepared by adding the substrate solution, the enzyme solution and the rhamnose solution in 1:1:1 ratio. The activity assay was performed on 96-well Microtiter UV plate by Thermo Scientific (Waltham, MA USA). All reactions were done at pH 6.5 and in temperature 40° C. The changes in absorbance were monitored at 405 nm for 30 minutes in Microplate reader Varioskan® Flash.

C[C@H](O)[C@H](O)[C@@H](O)[C@@H](O)C=O [rhamnose]
substrate conversion rate with increasing amount of rhamnose added: decreased
